# According to US12344610B2, “APOL1 inhibitors and methods of use” (Maze Therapeutics, Inc., priority 2022, dated 2025):
# Molecular target: T1, APOL1 G2 (Homo sapiens, UniProt O14791, DEL388-389)
# T1 construct: expressed in transfected cells; host or cells: HEK293 T-REx clonal line stably expressing GCaMP6f (HEK T-REx/GCaMP6f/APOL1 G2 K6.3), doxycycline induced
# T1 sequence (O14791 with tags, fused parts or gaps DEL388-389): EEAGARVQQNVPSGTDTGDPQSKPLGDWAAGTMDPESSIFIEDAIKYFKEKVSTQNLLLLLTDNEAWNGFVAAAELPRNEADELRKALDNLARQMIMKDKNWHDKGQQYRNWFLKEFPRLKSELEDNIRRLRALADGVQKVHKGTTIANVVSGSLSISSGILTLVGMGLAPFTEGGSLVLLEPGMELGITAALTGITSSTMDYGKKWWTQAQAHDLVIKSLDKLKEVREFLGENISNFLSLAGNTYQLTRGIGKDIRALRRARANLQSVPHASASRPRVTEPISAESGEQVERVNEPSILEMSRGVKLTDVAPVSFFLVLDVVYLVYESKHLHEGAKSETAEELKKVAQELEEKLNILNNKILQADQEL
# Assay: APOL1-mediated calcium transport (calcium influx) assay, HEK T-REx/GCaMP6f/APOL1 G2 K6.3 cells, FLIPR TETRA
# Type: cell-based
# Settings: prevention of calcium influx; geometric mean of at least 2 assay runs; † = average of a technical replicate from a single assay run
# Summary of the method: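 A HEK293 T-REx clone stably expressing GCaMP6f had APOL1 G2 induced with doxycycline (20 ng/mL solution added) for 6 h. Cells were then washed into Ca2+-free Tyrode's buffer (pH 7.4) and preincubated with compounds (duplicate 8-point) for 10 min at room temperature. Ca2+ injection to 5 mM final produced FLIPR GCaMP fluorescence, giving AC50 for influx inhibition (geometric mean, ≥2 runs).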
row,Compound,AC50
1,"CN(C)C(=O)C1(S(=O)(=O)c2ccc(OCCN3CCC4(CC3)C(=O)Nc3ccc(Cl)cc34)cc2)CC1 [Compound 227, 1-[4-(2-{5-chloro-2-oxo-1,2-dihydrospiro[indole-3,4′-piperidin]-1′-yl}ethoxy)benzenesulfonyl]-N,N-dimethylcyclopropane-1-carboxamide]",1110 nM
2,"O=C1Nc2ccc(Cl)cc2C12CCN(CCOc1ccc(S(=O)(=O)C3(C(=O)N4CCC4)CC3)cc1)CC2 [Compound 228, 1′-[2-(4-{[1-(azetidine-1-carbonyl)cyclopropyl]sulfonyl}phenoxy)ethyl]-5-chloro-1,2-dihydrospiro[indole-3,4′-piperidin]-2-one]",1200 nM
3,"CNC(=O)c1ccc(OCCN2CCC3(CC2)C(=O)Nc2ccc(Cl)cc23)cc1F [Compound 229, 4-(2-{5-chloro-2-oxo-1,2-dihydrospiro[indole-3,4′-piperidin]-1′-yl}ethoxy)-2-fluoro-N-methylbenzamide]",792 nM
4,"CN(C)C(=O)c1ccc(OCCN2CCC3(CC2)C(=O)Nc2ccc(Cl)cc23)cc1F [Compound 230, 4-(2-{5-chloro-2-oxo-1,2-dihydrospiro[indole-3,4′-piperidin]-1′-yl}ethoxy)-2-fluoro-N,N-dimethylbenzamide]",891 nM
5,"O=C(c1ccc(OCCN2CCC3(CC2)C(=O)Nc2ccc(Cl)cc23)cc1F)N1CCOCC1 [Compound 231, 5-chloro-1′-{2-[3-fluoro-4-(morpholine-4-carbonyl)phenoxy]ethyl}-1,2-dihydrospiro[indole-3,4′-piperidin]-2-one]",1020 nM
6,"O=C(c1ccc(OCCN2CCC3(CC2)C(=O)Nc2ccc(Cl)cc23)cc1F)N1CCS(=O)(=O)CC1 [Compound 232, 4-[4-(2-{5-chloro-2-oxo-1,2-dihydrospiro[indole-3,4′-piperidin]-1′-yl}ethoxy)-2-fluorobenzoyl]-1λ^6-thiomorpholine-1,1-dione]",1010 nM
7,"CS(=O)(=O)C1CN(C(=O)c2ccc(OCCN3CCC4(CC3)C(=O)Nc3ccc(Cl)cc34)cc2F)C1 [Compound 233, 5-chloro-1′-{2-[3-fluoro-4-(3-methanesulfonyl-azetidine-1-carbonyl)phenoxy]ethyl}-1,2-dihydrospiro[indole-3,4′-piperidin]-2-one]",1160 nM
8,"O=C(c1ccc(OCCN2CCC3(CC2)C(=O)Nc2ccc(Cl)cc23)cc1F)N1CCC1 [Compound 234, 1′-{2-[4-(azetidine-1-carbonyl)-3-fluorophenoxy]ethyl}-5-chloro-1,2-dihydrospiro[indole-3,4′-piperidin]-2-one]",786 nM
9,"O=C(c1ccc(OCCN2CCC3(CC2)C(=O)Nc2ccc(Cl)cc23)cc1F)N1CC(O)C1 [Compound 235, 5-chloro-1′-{2-[3-fluoro-4-(3-hydroxyazetidine-1-carbonyl)phenoxy]ethyl}-1,2-dihydrospiro[indole-3,4′-piperidin]-2-one]",1000 nM
10,"NC1CN(C(=O)c2ccc(OCCN3CCC4(CC3)C(=O)Nc3ccc(Cl)cc34)cc2F)C1 [Compound 236, 1′-{2-[4-(3-aminoazetidine-1-carbonyl)-3-fluorophenoxy]ethyl}-5-chloro-1,2-dihydrospiro[indole-3,4′-piperidin]-2-one]",634 nM
11,"CS(=O)(=O)NC1CN(C(=O)c2ccc(OCCN3CCC4(CC3)C(=O)Nc3ccc(Cl)cc34)cc2F)C1 [Compound 237, N-{1-[4-(2-{5-chloro-2-oxo-1,2-dihydrospiro[indole-3,4′-piperidin]-1′-yl}ethoxy)-2-fluorobenzoyl]azetidin-3-yl} methanesulfonamide]",3310 nM
12,"N#Cc1ccc2c(c1)C1(CCN(CCOc3ccc(C(N)=O)c(F)c3)CC1)C(=O)N2 [Compound 238, 4-(2-{5-cyano-2-oxo-1,2-dihydrospiro[indole-3,4′-piperidin]-1′-yl}ethoxy)-2-fluorobenzamide]",285 nM
13,"O=C(c1ccc(OCCN2CCC3(CC2)C(=O)Nc2ccc(Cl)cc23)cc1F)N1CC2(C1)CS(=O)(=O)C2 [Compound 239, 6-[4-(2-{5-chloro-2-oxo-1,2-dihydrospiro[indole-3,4′-piperidin]-1′-yl}ethoxy)-2-fluorobenzoyl]-2λ^6-thia-6-azaspiro[3.3]heptane-2,2-dione]",1540 nM
14,"Cc1n[nH]cc1-c1ccc(OCCN2CCC3(CC2)C(=O)Nc2ccc(Cl)cc23)cc1 [Compound 244, 5-chloro-1′-{2-[4-(5-methyl-1H-pyrazol-4-yl)phenoxy]ethyl}-1,2-dihydrospiro[indole-3,4′-piperidin]-2-one]",1060 nM
15,"CNC(=O)N1CCc2cc(OCCN3CCC4(CC3)C(=O)Nc3ccc(Cl)cc34)ccc2C1 [Compound 245, 6-(2-{5-chloro-2-oxo-1,2-dihydrospiro[indole-3,4′-piperidin]-1′-yl}ethoxy)-N-methyl-1,2,3,4-tetrahydroisoquinoline-2-carboxamide]",718 nM
16,"Cn1c(=O)[nH]c2cc(OCCN3CCC4(CC3)C(=O)Nc3ccc(Cl)cc34)cnc21 [Compound 247, 5-chloro-1′-[2-({3-methyl-2-oxo-1H,2H,3H-imidazo[4,5-b]pyridin-6-yl}oxy)ethyl]-1,2-dihydrospiro[indole-3,4′-piperidin]-2-one]",806 nM
17,"O=C1Nc2ccc(Cl)cc2C12CCN(CCOc1ccc(S(=O)(=O)C3(CO)CC3)nc1)CC2 [Compound 248, 5-chloro-1′-{2-[(6-{[1-(hydroxymethyl)cyclopropyl]sulfonyl}pyridin-3-yl)oxy]ethyl}-1,2-dihydrospiro[indole-3,4′-piperidin]-2-one]",820 nM
18,"NC(=O)c1ccc(OCCN2CCC3(CC2)C(=O)Nc2ccc(Cl)cc23)cc1C(F)F [Compound 249, 4-(2-{5-chloro-2-oxo-1,2-dihydrospiro[indole-3,4′-piperidin]-1′-yl}ethoxy)-2-(difluoromethyl)benzamide]",433 nM
19,"N#Cc1ccc2c(c1)C1(CCN(CCOc3ccc(C(N)=O)c(C(F)F)c3)CC1)C(=O)N2 [Compound 250, 4-(2-{5-cyano-2-oxo-1,2-dihydrospiro[indole-3,4′-piperidin]-1′-yl}ethoxy)-2-(difluoromethyl)benzamide]",559 nM
20,"CN1C(=O)C2(CCN(CCOc3ccc(C4(S(C)(=O)=O)COC4)cc3)CC2)c2cc(C#N)ccc21 [Compound 251, 1′-{2-[4-(3-methanesulfonyloxetan-3-yl)phenoxy]ethyl}-1-methyl-2-oxo-1,2-dihydrospiro[indole-3,4′-piperidine]-5-carbonitrile]",546 nM
21,"CN(C)C(=O)C1(c2ccc(OCCN3CCC4(CC3)C(=O)Nc3ccc(C#N)cc34)cc2)COC1 [Compound 254, 3-[4-(2-{5-cyano-2-oxo-1,2-dihydrospiro[indole-3,4′-piperidin]-1′-yl}ethoxy)phenyl]-N,N-dimethyloxetane-3-carboxamide]",898 nM
22,"CNC(=O)C1(c2ccc(OCCN3CCC4(CC3)C(=O)Nc3ccc(C#N)cc34)cc2)COC1 [Compound 255, 3-[4-(2-{5-cyano-2-oxo-1,2-dihydrospiro[indole-3,4′-piperidin]-1′-yl}ethoxy)phenyl]-N-methyloxetane-3-carboxamide]",2640 nM
23,"O=C(c1c(F)cc(OCCN2CCC3(CC2)C(=O)Nc2ccc(Cl)cc23)cc1F)N1CCS(=O)(=O)CC1 [Compound 259, 4-[4-(2-{5-chloro-2-oxo-1,2-dihydrospiro[indole-3,4′-piperidin]-1′-yl}ethoxy)-2,6-difluorobenzoyl]-1λ^6-thiomorpholine-1,1-dione]",651 nM
